Measured values reported in BigSolDB 2.1.

Nc1cccc2c1CN(C1CCC(=O)NC1=O)C2=O (stereo not given)
solubility (mole fraction)
Settings | 273.15 K | 278.15 K | 283.15 K | 288.15 K | 293.15 K | 298.15 K | 303.15 K | 308.15 K | 313.15 K | 318.15 K
in acetonitrile | 0.000444 | 0.000458 | 0.000476 | 0.000496 | 0.000516 | 0.000536 | 0.000558 | 0.000579 | 0.000601 | 0.000623
in ethyl acetate | 8e-05 | 9.2e-05 | 0.000105 | 0.00012 | 0.000136 | 0.000152 | 0.000168 | 0.000186 | 0.000206 | 0.000226
in isopropanol | 2.5e-05 | 3.2e-05 | 4.1e-05 | 5.2e-05 | 6.6e-05 | 8e-05 | 9.5e-05 | 0.000114 | 0.000136 | 0.00016
in methanol | 0.00019 | 0.000204 | 0.00022 | 0.000237 | 0.000256 | 0.000276 | 0.000301 | 0.000326 | 0.000351 | 0.000383
